Reference: article PMC4700476, “Differential regulation by AMP and ADP of AMPK complexes containing different γ subunit isoforms” (Biochemical Journal, 2016)

Assays:
[1] = system: γ3-containing AMPK complexes in HEK-293 cells expressing FLAG–γ3; test: Activation of AMPK complexes in intact cells (anti-FLAG IP kinase assay and pThr172 blot); type: cell-based, human; conditions: for AMPK activation and Thr172 phosphorylation in intact cells: γ3 complex, 60 min, phenformin 10 mM, berberine 300 μM, A23187 10 μM, A-769662 300 μM
Method: (§1) HEK-293 cells expressing tetracycline-inducible human γ1, γ2 and γ3 with N-terminal FLAG tags were obtained by inserting the appropriate DNA into cells carrying a Flp recombinase target site with co-transfection of DNA encoding Flp recombinase; expression of the γ subunits was induced by adding tetracycline (1 μg·ml^−1) to the medium for 48 h.
(§2) HEK-293 cells were grown in Dulbecco's modified Eagle's medium (DMEM) containing 4.5 g/l glucose, 10% (v/v) FBS, 100 units/ml penicillin, 100 μg/ml streptomycin, 200 μg/ml hygromycin and 15 μg/ml blasticidin. The medium was replaced with medium containing 1 g/l glucose, 16 h before the treatments described in the text.
(§3) Cell lysates were made using the rapid lysis procedure. Lysates containing stably expressed recombinant FLAG-tagged γ subunits were immunoprecipitated from HEK-293 cell lysates (90 μg of lysate protein) by incubation at 4°C for 2 h on a roller mixer with 7.5 μl of EZview Red anti-FLAG M2 affinity gel (Sigma–Aldrich). After extensive washing, the immunoprecipitates (IPs) were assayed for AMPK activity on an orbital shaker as described previously except that the AMARA peptide substrate was used in all assays apart from those shown in Figures 3 and 4. The SAMS peptide was used in the latter because, for reasons that remain unclear, the degree of allosteric activation is always greater using this substrate.
(§4) Figure 2 Activation of FLAG–γ1,–γ2 or–γ3 by various AMPK activators Cells expressing FLAG–γ1,–γ2 or–γ3 were incubated with DMSO (vehicle), phenformin (10 mM), berberine (300 μM), A23187 (10 μM) or A-769662 (300 μM) for 60 min, AMPK complexes were immunoprecipitated using anti-FLAG antibodies and were analysed by kinase assays (upper panel) and Western blotting (lower panel). […] The absolute activities (nmol/min/mg of lysate protein) in the DMSO controls were: 0.16±0.01 (γ1), 0.24±0.01 (γ2) and 0.053±0.001 (γ3; means ± S.E.M., n=3).

[2] = system: γ2-containing AMPK complexes in HEK-293 cells expressing FLAG–γ2; test: as above; type: cell-based, human; conditions: γ2 complex; 60 min; phenformin 10 mM, berberine 300 μM, A23187 10 μM, A-769662 300 μM
Method: as §1, §2, §3, §4

[3] = system: γ1-containing AMPK complexes in HEK-293 cells expressing FLAG–γ1; test: as above; type: cell-based, human; conditions: γ1 complex; 60 min; phenformin 10 mM, berberine 300 μM, A23187 10 μM, A-769662 300 μM
Method: as §1, §2, §3, §4

[4] = system: γ3-containing AMPK complexes in mouse skeletal muscle; set-up: method as in PMID 25695398; conditions: cited from earlier work
[5] = system: γ1-containing AMPK complexes in mouse skeletal muscle; set-up: method as in PMID 25695398; conditions: cited from earlier work
[6] = system: AMPK; set-up: method as in PMID 24746562; conditions: AMPK not phosphorylated on Thr172; cited from earlier work
[7] = system: rat hepatocytes; set-up: method as in PMID 17855357; conditions: cited from earlier work

SMILES	AMPK activation and Thr172 phosphorylation in intact cells [1]	AMPK activation and Thr172 phosphorylation in intact cells [2]	AMPK activation and Thr172 phosphorylation in intact cells [3]	further results
CNc1ccc2oc(C[C@H]3O[C@@]4(CC[C@H]3C)O[C@H]([C@H](C)C(=O)c3ccc[nH]3)[C@H](C)C[C@H]4C)nc2c1C(=O)O [A23187]	activated	activated	activated	
COc1ccc2cc3[n+](cc2c1OC)CCc1cc2c(cc1-3)OCO2 [berberine, Berberine chloride]	activated	activated	activated	
O=C(O)c1ccc2c3c1cccc3c(=O)n1c3ccccc3nc21 [STO-609]				effect on activation of γ3 complex by A23187 ([1]; results not shown): completely blocked
NC(=O)c1ncn([C@@H]2O[C@H](CO)[C@@H](O)[C@H]2O)c1N [AICAR, 5-aminoimidazole-4-carboxamide riboside]				activation of γ3-containing complexes [4]: activated both isoforms; activation of γ1-containing complexes [5]: activated both isoforms
N#Cc1c(O)c2c(-c3ccc(-c4ccccc4O)cc3)csc2[nH]c1=O [A-769662]	only modest increases	only modest increases	did not significantly activate	allosteric activation of AMPK [6]: > 60 fold; increases in Thr172 phosphorylation [7]: negligible; phosphorylation of acetyl-CoA carboxylase (ACC) [7]: marked phosphorylation
[H]/N=C(/N)N/C(=N/[H])NCCc1ccccc1 [phenformin]	activated	activated	activated	
